US4565774A, “Method for the formation of dye image” (priority 1981, dated 1986)
Where two headings read alike, the source gives them in different places.

Assay: acid dissociation constant (Ka) of the added compound, measured at a normal temperature
Type: physicochemical
Method: The acid dissociation constant value is what was measured at a normal temperature, and is described in, e.g., the annex vol. 2 to the "Dai Yuki-Kagaku (Complete Organic Chemistry)" (published by Asakura Publishing Co., Ltd.), "The Theory of Photographic Process" written by T. H. James, 4th ed. (Published by McMillan), and the like. For the measurement of the acid dissociation constant there are several methods, and reference may be made to, e.g., the "Jikken Kagaku Koza (Course of Experimental Chemistry)" vol. 11, second series, (published by Maruzen Co., Ltd.) pp. 524 to 552, and the like.
To the above-prepared developer was added each of the compounds as given in Table 1 to thereby prepare color developers [A] to [M].

[1] = normal temperature, read-out: acid dissociation constant (Ka) (converted)

pKa [1]	pKa	Compound
3.34	–	Sc1nnnn1-c1ccccc1 [Comparative compound (3), 1-phenyl-5-mercaptotetrazole]
10.3	–	CCCc1ccc2nc[nH]c2c1 [Exemplified compound S-5]
–	9.8	Nc1ncnc2nc[nH]c12 [Exemplified compound S-11]

Continued, compound first:

Compound	pKa [1]	pKa
c1c[nH]cn1 [Comparative compound (1), Imidazole]	7.2	–
Cc1cc(O)n2ncnc2n1 [Comparative compound (2), 4-hydroxy-6-methyl-1,3,3a,7-tetrazaindene]	6.49	–
c1ccc2[nH]cnc2c1 [Exemplified compound S-1]	11.7	–
